This passage reports Activity, inhibition and IC50 results from ChEMBL document CHEMBL5365522, “Discovery of potential novel TRPC5 inhibitors by virtual screening and bioassay” (Bioorg Med Chem, 2023).

Structures are written as SMILES. The source made the active and inactive calls. The rule behind the calls is not given here.

Data set [1] relates to HEK-293T. The data set can be described thus: Cytotoxicity against human HEK293T cells expressing human TRPC5 assessed as cell death incubated for 24 hrs by MTS assay. Type of data set: toxicity, cell-based.
In data set [2] the target is T1, Short transient receptor potential channel 5 (Homo sapiens) (UniProt Q9UL62).
T1 sequence (whole entry): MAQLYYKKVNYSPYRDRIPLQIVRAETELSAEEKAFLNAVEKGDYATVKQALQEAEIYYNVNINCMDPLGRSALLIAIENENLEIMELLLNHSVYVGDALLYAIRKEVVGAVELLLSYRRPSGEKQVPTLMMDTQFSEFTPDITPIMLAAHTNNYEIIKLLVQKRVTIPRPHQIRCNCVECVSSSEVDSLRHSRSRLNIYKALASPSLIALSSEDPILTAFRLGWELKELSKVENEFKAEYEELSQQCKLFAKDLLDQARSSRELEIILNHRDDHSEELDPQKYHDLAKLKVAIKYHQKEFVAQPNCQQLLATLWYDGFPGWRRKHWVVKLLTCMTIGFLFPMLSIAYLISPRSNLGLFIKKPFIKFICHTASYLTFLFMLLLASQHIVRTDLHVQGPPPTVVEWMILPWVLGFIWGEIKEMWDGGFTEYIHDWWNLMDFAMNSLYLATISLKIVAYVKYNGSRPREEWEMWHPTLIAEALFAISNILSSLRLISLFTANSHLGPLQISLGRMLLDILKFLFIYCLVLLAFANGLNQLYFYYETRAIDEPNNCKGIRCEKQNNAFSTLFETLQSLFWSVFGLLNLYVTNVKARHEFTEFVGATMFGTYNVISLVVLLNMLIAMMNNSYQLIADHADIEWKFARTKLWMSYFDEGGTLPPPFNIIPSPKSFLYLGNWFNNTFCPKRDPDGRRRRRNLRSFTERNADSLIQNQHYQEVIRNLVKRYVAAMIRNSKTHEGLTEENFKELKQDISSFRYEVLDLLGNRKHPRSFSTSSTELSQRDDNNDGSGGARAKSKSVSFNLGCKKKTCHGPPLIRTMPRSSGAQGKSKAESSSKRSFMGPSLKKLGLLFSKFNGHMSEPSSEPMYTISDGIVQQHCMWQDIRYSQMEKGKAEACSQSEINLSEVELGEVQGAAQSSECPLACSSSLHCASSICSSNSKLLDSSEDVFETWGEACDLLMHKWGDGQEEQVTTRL
The data set can be described thus: Inhibition of human TRPC5 expressed in HEK293T cells assessed as intracellular calcium influx at 30 uM measured after 30 mins by Fluo-4 AM dye based fluorescence analysis. It counts as cell-based.

Data set [3] concerns the target T2, Short transient receptor potential channel 5 (Homo sapiens, UniProt Q9UL62).
T2 sequence (Q9UL62 whole entry): T1 sequence (whole entry)
The data set can be described thus: Inhibition of human TRPC5 expressed in HEK293T cells assessed as intracellular calcium influx by measuring Ca2+ flow inhibition after 30 mins by Fluo-4 AM dye based fluorescence analysis. It counts as cell-based.

Data set [4] relates to HEK-293T. The data set can be described thus: Cytotoxicity against human HEK293T cells expressing human TRPC5 assessed as reduction in cell viability at 100 uM incubated for 24 hrs by MTS assay. Type of data set: toxicity, cell-based.

For the compound `CC(c1ccccc1)n1c(CCCO)nc2ccccc21` (stereo unspecified), the Activity entry in data set [1] is on record as “Toxic”. Besides, the inhibition entry in data set [2] was “Active”.

On to `c1ccc(Cn2c(NCc3ccco3)nc3ccccc32)cc1`, for which the IC50 in data set [3] is 14.9 µM.

Regarding `O=C(Cc1cccc(F)c1)NCc1nnc2ccc(-c3ccc(F)cc3)nn12`, the Activity result in data set [4] is “Non-Toxic”. Moreover, the 50% inhibitory concentration (IC50) in data set [3] was 10.2 µM. Moreover, the inhibition entry in data set [2] was “Active”.
